Results taken from patent US8808743B2, “Benzonatate compositions and methods of use” (priority 2010, dated 2014).

Assay: Simulated gastrointestinal dissolution testing (FloVitro apparatus, USP simulated gastric and intestinal fluids)
Type: physicochemical
Settings: 100 mg dose
Experimental: The dissolution test used procedures devised by DOW Chemical using their proprietary FloVitro™ dissolution apparatus described in U.S. Pat. No. 6,799,123B2 and in the publication titled “FloVitro™ Technology” published online at:
The system used two different media that were combined during the process. The fluid flow rates were:
Simulated gastric fluid=7.7 ml/min
Simulated intestinal fluid=13.1 ml/mi
Total flow through analyzer=20.8 ml/min
To Cell 1: USP simulated gastric fluid (no pepsin)
To Cell 2: USP simulated intestinal fluid (pH 6.8) (SIF)
The samples tested were: • a) 100 mg dose neat benzonatate • b) 220.48 mg of IRP69H resinate: 87.97 mg benzonatate dose • c) 225.15 mg of IRP64H resinate: 102.21 mg benzonatate dose a) 100 mg Neat Benzonatate

CCCCNc1ccc(C(=O)OCCOCCOCCOCCOCCOCCOCCOCCOCCOC)cc1 [BENZ, benzonatate]
Concentration of Homolog in Effluent Total (120 min): 18.66 mg/L
Concentration of Homolog in Effluent n = 3 (120 min): 0.05 mg/L
Concentration of Homolog in Effluent n = 4 (120 min): 0.20 mg/L
Concentration of Homolog in Effluent n = 5 (120 min): 0.53 mg/L
Concentration of Homolog in Effluent n = 6 (120 min): 1.18 mg/L
Concentration of Homolog in Effluent n = 7 (120 min): 1.99 mg/L
Concentration of Homolog in Effluent n = 8 (120 min): 2.67 mg/L
Concentration of Homolog in Effluent n = 9 (120 min): 3.01 mg/L
Concentration of Homolog in Effluent n = 10 (120 min): 2.84 mg/L
Concentration of Homolog in Effluent n = 11 (120 min): 2.44 mg/L
Concentration of Homolog in Effluent n = 12 (120 min): 1.73 mg/L
Concentration of Homolog in Effluent n = 13 (120 min): 1.13 mg/L
Concentration of Homolog in Effluent n = 14 (120 min): 0.59 mg/L
Concentration of Homolog in Effluent n = 15 (120 min): 0.31 mg/L
Concentration of Homolog in Effluent n = 16 (120 min): 0.00 mg/L
Concentration of Homolog in Effluent n = 17 (120 min): 0.00 mg/L
Cumul. (cumulative release in effluent) (120 min): 81.10 mg
Concentration of Homolog in Effluent Total (180 min): 9.68 mg/L
Concentration of Homolog in Effluent n = 3 (180 min): 0.00 mg/L
Concentration of Homolog in Effluent n = 4 (180 min): 0.10 mg/L
Concentration of Homolog in Effluent n = 5 (180 min): 0.29 mg/L
Concentration of Homolog in Effluent n = 6 (180 min): 0.61 mg/L
Concentration of Homolog in Effluent n = 7 (180 min): 1.04 mg/L
Concentration of Homolog in Effluent n = 8 (180 min): 1.41 mg/L
Concentration of Homolog in Effluent n = 9 (180 min): 1.57 mg/L
Concentration of Homolog in Effluent n = 10 (180 min): 1.51 mg/L
Concentration of Homolog in Effluent n = 11 (180 min): 1.26 mg/L
Concentration of Homolog in Effluent n = 12 (180 min): 0.90 mg/L
Concentration of Homolog in Effluent n = 13 (180 min): 0.57 mg/L
Concentration of Homolog in Effluent n = 14 (180 min): 0.30 mg/L
Concentration of Homolog in Effluent n = 15 (180 min): 0.11 mg/L
Concentration of Homolog in Effluent n = 16 (180 min): 0.00 mg/L
Concentration of Homolog in Effluent n = 17 (180 min): 0.00 mg/L
Cumul. (cumulative release in effluent) (180 min): 90.57 mg
Concentration of Homolog in Effluent Total (240 min): 5.50 mg/L
Concentration of Homolog in Effluent n = 3 (240 min): 0.00 mg/L
Concentration of Homolog in Effluent n = 4 (240 min): 0.06 mg/L
Concentration of Homolog in Effluent n = 5 (240 min): 0.16 mg/L
Concentration of Homolog in Effluent n = 6 (240 min): 0.36 mg/L
Concentration of Homolog in Effluent n = 7 (240 min): 0.60 mg/L
Concentration of Homolog in Effluent n = 8 (240 min): 0.78 mg/L
Concentration of Homolog in Effluent n = 9 (240 min): 0.89 mg/L
Concentration of Homolog in Effluent n = 10 (240 min): 0.84 mg/L
Concentration of Homolog in Effluent n = 11 (240 min): 0.70 mg/L
Concentration of Homolog in Effluent n = 12 (240 min): 0.49 mg/L
Concentration of Homolog in Effluent n = 13 (240 min): 0.36 mg/L
Concentration of Homolog in Effluent n = 14 (240 min): 0.17 mg/L
Concentration of Homolog in Effluent n = 15 (240 min): 0.09 mg/L
Concentration of Homolog in Effluent n = 16 (240 min): 0.00 mg/L
Concentration of Homolog in Effluent n = 17 (240 min): 0.00 mg/L
Cumul. (cumulative release in effluent) (240 min): 95.70 mg
Concentration of Homolog in Effluent Total (300 min): 2.73 mg/L
Concentration of Homolog in Effluent n = 3 (300 min): 0.00 mg/L
Concentration of Homolog in Effluent n = 4 (300 min): 0.00 mg/L
Concentration of Homolog in Effluent n = 5 (300 min): 0.09 mg/L
Concentration of Homolog in Effluent n = 6 (300 min): 0.18 mg/L
Concentration of Homolog in Effluent n = 7 (300 min): 0.30 mg/L
Concentration of Homolog in Effluent n = 8 (300 min): 0.41 mg/L
Concentration of Homolog in Effluent n = 9 (300 min): 0.45 mg/L
Concentration of Homolog in Effluent n = 10 (300 min): 0.42 mg/L
Concentration of Homolog in Effluent n = 11 (300 min): 0.39 mg/L
Concentration of Homolog in Effluent n = 12 (300 min): 0.25 mg/L
Concentration of Homolog in Effluent n = 13 (300 min): 0.15 mg/L
Concentration of Homolog in Effluent n = 14 (300 min): 0.09 mg/L
Concentration of Homolog in Effluent n = 15 (300 min): 0.00 mg/L
Concentration of Homolog in Effluent n = 16 (300 min): 0.00 mg/L
Concentration of Homolog in Effluent n = 17 (300 min): 0.00 mg/L
Cumul. (cumulative release in effluent) (300 min): 98.15 mg
Concentration of Homolog in Effluent Total (360 min): 1.20 mg/L
Concentration of Homolog in Effluent n = 3 (360 min): 0.00 mg/L
Concentration of Homolog in Effluent n = 4 (360 min): 0.00 mg/L
Concentration of Homolog in Effluent n = 5 (360 min): 0.05 mg/L
Concentration of Homolog in Effluent n = 6 (360 min): 0.11 mg/L
Concentration of Homolog in Effluent n = 7 (360 min): 0.15 mg/L
Concentration of Homolog in Effluent n = 8 (360 min): 0.19 mg/L
Concentration of Homolog in Effluent n = 9 (360 min): 0.23 mg/L
Concentration of Homolog in Effluent n = 10 (360 min): 0.20 mg/L
Concentration of Homolog in Effluent n = 11 (360 min): 0.17 mg/L
Concentration of Homolog in Effluent n = 12 (360 min): 0.10 mg/L
Concentration of Homolog in Effluent n = 13 (360 min): 0.00 mg/L
Concentration of Homolog in Effluent n = 14 (360 min): 0.00 mg/L
Concentration of Homolog in Effluent n = 15 (360 min): 0.00 mg/L
Concentration of Homolog in Effluent n = 16 (360 min): 0.00 mg/L
Concentration of Homolog in Effluent n = 17 (360 min): 0.00 mg/L
Cumul. (cumulative release in effluent) (360 min): 99.32 mg
Concentration of Homolog in Effluent Total (420 min): 0.67 mg/L
Concentration of Homolog in Effluent n = 3 (420 min): 0.00 mg/L
Concentration of Homolog in Effluent n = 4 (420 min): 0.00 mg/L
Concentration of Homolog in Effluent n = 5 (420 min): 0.00 mg/L
Concentration of Homolog in Effluent n = 6 (420 min): 0.06 mg/L
Concentration of Homolog in Effluent n = 7 (420 min): 0.08 mg/L
Concentration of Homolog in Effluent n = 8 (420 min): 0.11 mg/L
Concentration of Homolog in Effluent n = 9 (420 min): 0.12 mg/L
Concentration of Homolog in Effluent n = 10 (420 min): 0.11 mg/L
Concentration of Homolog in Effluent n = 11 (420 min): 0.09 mg/L
Concentration of Homolog in Effluent n = 12 (420 min): 0.10 mg/L
Concentration of Homolog in Effluent n = 13 (420 min): 0.00 mg/L
Concentration of Homolog in Effluent n = 14 (420 min): 0.00 mg/L
Concentration of Homolog in Effluent n = 15 (420 min): 0.00 mg/L
Concentration of Homolog in Effluent n = 16 (420 min): 0.00 mg/L
Concentration of Homolog in Effluent n = 17 (420 min): 0.00 mg/L
Cumul. (cumulative release in effluent) (420 min): 99.74 mg
Concentration of Homolog in Effluent Total (480 min): 0.00 mg/L
Concentration of Homolog in Effluent n = 3 (480 min): 0.00 mg/L
Concentration of Homolog in Effluent n = 4 (480 min): 0.00 mg/L
Concentration of Homolog in Effluent n = 5 (480 min): 0.00 mg/L
Concentration of Homolog in Effluent n = 6 (480 min): 0.00 mg/L
Concentration of Homolog in Effluent n = 7 (480 min): 0.00 mg/L
Concentration of Homolog in Effluent n = 8 (480 min): 0.00 mg/L
Concentration of Homolog in Effluent n = 9 (480 min): 0.00 mg/L
Concentration of Homolog in Effluent n = 10 (480 min): 0.00 mg/L
Concentration of Homolog in Effluent n = 11 (480 min): 0.00 mg/L
Concentration of Homolog in Effluent n = 12 (480 min): 0.00 mg/L
Concentration of Homolog in Effluent n = 13 (480 min): 0.00 mg/L
Concentration of Homolog in Effluent n = 14 (480 min): 0.00 mg/L
Concentration of Homolog in Effluent n = 15 (480 min): 0.00 mg/L
Concentration of Homolog in Effluent n = 16 (480 min): 0.00 mg/L
Concentration of Homolog in Effluent n = 17 (480 min): 0.00 mg/L
